Measured values taken from PubChem BioAssay (NCI).
Where “and” joins values, the source holds several entries; their conditions need not be identical. Identical values can stand only once.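 In this assay, cells in 96-well plates receive the compound at five concentrations for 48 hours. Endpoints are linearly interpolated between the surrounding concentrations. GI50: concentration for 50% inhibition of growth. TGI is the concentration that stops growth completely.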 Where a SMILES comes first, the peptide text is derived from it. [ ]: non-standard residue; d: D form. The star is where a group is joined. ξ: configuration not given here. ξF = NC(Cc1ccccc1)C(=O)O; Cbz = O=C(OCc1ccccc1)*

Legend:
Assay in all cases: NCI tumour cell line growth inhibition, 48 h
HT29 colon = test system: HT29 colon
HL-60(TB) leukemia = test system: HL-60(TB) leukemia
HOP-62 NSCLC = test system: HOP-62 NSCLC
SF-268 CNS = test system: SF-268 CNS
SK-MEL-28 melanoma = test system: SK-MEL-28 melanoma
SK-MEL-5 melanoma = test system: SK-MEL-5 melanoma
MOLT-4 leukemia = test system: MOLT-4 leukemia
A498 renal = test system: A498 renal
NCI-H522 lung = test system: NCI-H522 lung
A549 NSCLC = test system: A549 NSCLC
786-0 renal = test system: 786-0 renal
MDA-MB-435 = test system: MDA-MB-435
MDA-MB-231 breast = test system: MDA-MB-231 breast

Row | Compound | TGI (HT29 colon) [µM] | TGI (HL-60(TB) leukemia) | TGI (HOP-62 NSCLC) | TGI (SF-268 CNS) [µM] | TGI (SK-MEL-28 melanoma) | TGI (SK-MEL-5 melanoma) | TGI (MOLT-4 leukemia) [µM] | TGI (A498 renal) | TGI (NCI-H522 lung) [µM] | TGI (A549 NSCLC) | TGI (786-0 renal) | TGI (MDA-MB-435) | TGI (MDA-MB-231 breast) | GI50 (SK-MEL-28 melanoma) [µM] | GI50 (SK-MEL-5 melanoma) | GI50 (MDA-MB-435) | GI50 (A498 renal) | GI50 (MDA-MB-231 breast)
1 | Cc1cc(C)c(-c2no/c(=N\S(=O)(=O)c3ccc(Cl)cc3)o2)c(C)c1 | > 100 | 77.4 µM | > 100 µM | > 100 | > 100 µM | 68 µM | > 100 | > 100 µM | 71.2 | > 100 µM | > 100 µM | > 100 µM | > 100 µM |  |  |  |  | 
2 | CCOC(=O)CNC(=O)C(Cc1ccccc1)NC(=O)OCc1ccccc1 (stereo not drawn) (Cbz-[ξF]-Gly-OEt) | > 100 | > 100 µM | > 100 µM | > 100 |  | > 100 µM | > 100 | > 100 µM |  | > 100 µM | > 100 µM | > 100 µM | > 100 µM |  |  |  |  | 
3 | CCCCCCCCCCCCCCCCCCNc1ccn(C2OC(COP(=O)(O)OCC3OC(n4ccc(N)nc4=O)C(O)C3O)C(O)C2O)c(=O)n1 (stereo not drawn) | > 100 | > 100 µM | > 100 µM | > 100 | > 100 µM | > 100 µM | > 70.6 | > 100 µM | > 100 | > 100 µM | > 100 µM | > 100 µM | > 100 µM |  |  |  |  | 
4 | O=c1[nH]c(N/N=C\C(O)C(O)C(O)C(O)CO)nc2ccccc12 (stereo not drawn) | > 100 | > 100 µM | > 100 µM | > 100 | > 100 µM | > 100 µM | > 100 | > 100 µM |  | > 100 µM | > 100 µM | > 100 µM | > 100 µM |  |  |  |  | 
5 | Cc1cccc2sc(NC(=O)NS(=O)(=O)n3cnc4ccccc43)nc12 | > 100 | > 100 µM | > 100 µM | > 100 | > 100 µM | 56.3 µM | 88 | 72.3 µM | 62.9 | > 100 µM | > 100 µM | > 100 µM | 93.3 µM |  |  |  |  | 
6 | Cc1cc(N(CCC#N)CCC#N)ccc1/C(N=Nc1ccccc1)=N\NC(=O)c1cc(Cl)ccc1O | 35.4 | > 100 µM | > 100 µM | > 100 |  | 46.5 µM | 92.6 | > 100 µM | 31 | > 100 µM | 70.3 µM | > 100 µM | 83 µM |  |  |  |  | 
7 | COc1ccc(/C(Nc2ccccc2)=C(\CCl)c2ccccc2)cc1OC | > 100 | 50 µM | > 100 µM | > 100 | > 100 µM | 72.2 µM | > 100 | > 100 µM | > 100 | > 100 µM | > 100 µM | > 100 µM | > 100 µM |  |  |  |  | 
8 | CC(=O)c1ccc(N=NN2CCCC2)cc1 |  | > 100 µM | > 100 µM | > 100 |  | > 100 µM | > 100 | 37.3 µM | > 100 |  | > 100 µM | > 100 µM | > 100 µM |  |  |  |  | 
9 | COC(=O)[C@@H]1CO[C@H](C(C)(C)C)N1C(=O)N1C=CC(=O)C[C@H]1C | > 100 | > 100 µM | > 100 µM | > 100 | > 100 µM | > 100 µM |  | > 100 µM | > 100 | > 100 µM | > 100 µM | > 100 µM | > 100 µM |  |  |  |  | 
10 | O=[N+]([O-])c1cccc2nc3ccccc3c(NCCCCCNc3c4ccccc4nc4cccc([N+](=O)[O-])c34)c12 | 0.0922 | 0.0429 µM |  |  | 0.455 µM and 0.241 µM | 0.255 µM and 0.149 µM | 0.244 | 0.248 µM | 0.388 |  | 0.0666 µM and 0.0332 µM | 0.259 µM and 0.0288 µM | 0.0927 µM | 0.0559 | 0.018 µM | 0.105 µM and 0.0111 µM |  | 
11 | COc1ccc(-c2oc3cc(-c4cc5oc(-c6ccc(OC)cc6)c(-c6ccc(OC)cc6)c5cc4OC)c(OC)cc3c2-c2ccc(OC)cc2)cc1 | > 100 |  | > 100 µM | > 100 | > 100 µM | > 100 µM | > 100 | > 100 µM | > 100 | > 100 µM | > 100 µM | > 100 µM | > 100 µM |  |  |  |  | 
12 | CC1=NN(c2nc(N)nc(C(C)Cl)n2)C(C)(C)C1 (stereo not drawn) | > 100 | > 100 µM | > 100 µM | > 100 | > 100 µM | > 100 µM | > 100 | > 100 µM |  |  | > 100 µM | > 100 µM | > 100 µM |  |  |  |  | 
13 | Cc1cc(O)c(/C=N/C(N)=S)c(=O)o1 |  | 41.2 µM | > 100 µM | > 100 |  | > 100 µM | > 100 |  | > 100 | > 100 µM | > 100 µM | > 100 µM | > 100 µM |  |  |  |  | 
14 | Clc1ccc(C=Nc2ccc(Oc3ccc(Cl)cc3)c(Cl)c2)cc1 | 55 | 63.8 µM | 37.5 µM | 41.1 | 61.5 µM | 49.5 µM | > 100 |  | 32.3 | 59.1 µM | 36.1 µM | 82.5 µM | 47.9 µM |  |  |  |  | 
15 | O=C(NCCN(CCNC(=O)c1cccc(O)c1O)CCNC(=O)c1cccc(O)c1O)c1cccc(O)c1O | > 100 | > 100 µM | > 91.6 µM | > 100 | > 100 µM | > 55.8 µM |  | > 100 µM | 15.4 | > 100 µM | > 100 µM | > 100 µM | > 100 µM |  |  |  |  | 
16 | Cn1c2ccccc2c(=O)c2c(O)cc3c(c21)C1OCC(C)(O)C1O3 (stereo not drawn) | > 100 | > 100 µM | > 100 µM | 86.6 | > 100 µM | > 100 µM | > 100 |  |  | > 100 µM | > 100 µM | > 100 µM | > 100 µM |  |  |  |  | 
17 | COc1cc([C@@H]2c3cc4c(cc3[C@@H](Nc3ccc(NC(=O)c5cc([N+](=O)[O-])cn5C)cc3)[C@H]3COC(=O)[C@H]23)OCO4)cc(OC)c1O | 1.33 | 0.201 µM and 0.0837 µM | 0.174 µM and 0.127 µM | > 33.5 | > 100 µM | 0.183 µM and 0.316 µM |  | 0.402 µM and 0.476 µM | > 100 | 1.31 µM and 0.309 µM | 0.29 µM and 0.261 µM | > 100 µM | 17.3 µM and 14.6 µM |  | 0.0291 µM and 0.0847 µM | 0.415 µM | 0.0233 µM and 0.0897 µM | 1.34 µM and 4.74 µM
18 | COC(=O)/C=C/c1ccc(OP(=O)(O)O)c(OC)c1 | > 100 |  | > 100 µM | > 100 | > 100 µM | > 100 µM | > 100 | > 100 µM | > 100 | > 100 µM | > 100 µM | > 100 µM | > 100 µM |  |  |  |  | 
